Experimental data: patent US4530932A, “4-(1H-indol-3-yl)-α-methyl-piperidine-1-ethanol derivatives” (Roussel Uclaf, priority 1982, dated 1985)
Where a name gives a salt, the structure may show the parent alone. Read-outs that look alike come from different tables or passages of the source.

Tests used:
mice = experiment: Acute toxicity (DL0, oral); assay type: in vivo, mouse; parameters: unit not given here
[1] = tested on: cardiac rhythm troubles in guinea pigs; experiment: Antiarythmic action (K-strophanthine and adrenaline induced cardiac rhythm troubles); assay type: in vivo, guinea pig; details: Cavia porcellus, 1 h, oral 10 mg/kg, one hour before K-strophanthine and adrenaline perfusion, read-out: Percentage of protection (lengthening of the time of appearance of cardiac rhythm troubles as compared to controls)
Experimental: Male guinea pigs weighing between 450 and 500 g were tracheotomized while anesthesized by intraperitoneal administration of […] of urethane and were subjected to artifical respiration of 40 to 50 breaths of 5 ml per minute. Needles were subcutaneously implanted to register an electrocardiogram of the guinea pigs for the signal of D II derivation. The test products were orally administered and one hour later, the jugular vein of the guinea pigs were perfused with 0.5 ml per minute of a solution of 150 γ/ml of K-strophanthine and 0.5 ml per minute of a solution of 5 γ/ml of adrenaline and the number of times of the appearance of cardiac rhythm troubles was noted. The results are expressed in percentage of protection with an oral dose of 10 mg/kg of test product that is to say the percentage of lengthening of the time of appearance of cardiac rhythm troubles as compared to the controls.

[2] = tested on: Rat arteries (arterial contractions, entry of calcium ions into the cells of smooth muscles); experiment: In vitro anticalcic activity (inhibition of potassium-depolarized, calcium-induced contractions of isolated rat arteries); assay type: cell-based; details: dose inhibiting by 50% the contractions caused by potassium ions (100 mM), 37° C., read-out: CI50 (the source's name)
Experimental: Rat arteries decoupled in a spiral were attached to a tension collector and were maintained in tanks containing 2.5 ml of Krebs-sodium bicarbonate buffer (NaCl: 120.8 mM, KCl: 5.9 mM, MgCl2 : 1.2 mM, NaH2 PO4 : 1.2 mM, NaHCO3 : 15.5 mM, glucose: 12.6 mM), at 37° C. covered with a 95%-5% oxygen-carbon dioxide mixture. The preparations were depolarized with a buffered solution containing 100 mM of potassium ions (NaCl: 26.7 mM, KCl: 100 mM, MgCl2 : 1.2 mM, NaH2 PO4 : 1.2 mM, NaHCO3 : 15.5 mM, glucose 12.6 mM).
A volume of 25 μl of calcium chloride was added to the mixture in a manner to obtain a range of increasing concentrations of calcium ions from 0.1 to 3.0 mM and the contractions of the artery were measured to obtain a control. The operation with range of calcium ions was repeated every 15 minutes and the preparation was washed 4 times after each range. When a stable response was obtained, the operation with the range of calcium ions was effected in the presence of varying concentrations of test compounds until a stable response was obtained.
The arterial contractions depend on the entry of calcium ions into the cells of smooth muscles and are provoked by depolarization of smooth muscles by potassium ions and by action of noradrenaline freed by presynapthic level. By recommencing the operation with denerved arteries by the action of 6-hydroxy-dopamine, the specific action due to noradrenaline is suppressed.

α1 adrenergic receptors = experiment: Affinity for α1 adrenergic receptors (3H prazosine displacement, rat brain); assay type: binding; details: relative to phentolamine (ARL=100×(CB/CX)), 25° C., pH 7.7
Experimental: After centrifugation at 30,000 g for 15 minutes at 0° to 4° C., the culot was suspended in 240 ml of buffer Tris HCl 50 mM (pH-7.7) and the suspension was centrifuged at 30,000 g for 20 minutes at 0° to 4° C. The new culot was suspended in 480 ml of buffer Krebs Tris HCl (pH of 7.7-50 mM) and 2 ml of the suspension in the presence of 3H prazosine at a concentration of […] alone and with increasing concentrations of the test compound or with non-radioactive phentolamine at a concentration of 10^-5 M to determine the non-specific fixation was incubated at 25° C. for 30 minutes.
The incubated suspensions were filtered through Whatman FG/C and the filtered were washed with 3 times with 5 ml of buffer Krebs Tris HCl-pH of 7.7 at 0° to 4° C. The radioactivity of the filters was measured by liquid scintillation and the affinity of the test compound for α1 adrenergic receptors was compared relative to phentolamine as the reference compound by the formula
CD=concentration of phentolamine inhibiting by 50% the specific fixation of 3H prazosine.
CX=concentration of test product inhibiting by 50% the specific fixation of 3H prazosine.

[3] = tested on: carotidien arterial pressure in rats; experiment: Hypotensive activity (carotidien arterial pressure in anesthesized rats); assay type: in vivo, rat (Wistar); details: rat, intravenous
Experimental: The hypotensive activity was studied on male rats of the Wistar strain weighing about 300 g and anesthesized with 50 mg/kg of nembutal intraveinously. The test products were administered intraveinously by the jugular vein and the carotidien arterial pressure was measured before and after administration of the test compounds. The variations expressed in percentage of arterial pressure after administration with respect to the initial pressure is reported in Table IV.

[4] = 1 min, 1 minute, read-out: % Variation of arterial pressure after administration, 1 minute
[5] = 5 min, 5 minutes, read-out: % Variation of arterial pressure after administration, 5 minutes
[6] = 10 min, 10 minutes, read-out: % Variation of arterial pressure after administration, 10 minutes
[7] = 0.5 h, 30 minutes, read-out: % Variation of arterial pressure after administration, 30 minutes

Row | SMILES | DL0 (maximum dose which did not cause any deaths after 8 days) (mice) | change in vivo at 10 mg/kg [1] [%] | IC50 [2] [nM] | % Arl (relative affinity for α1 adrenergic receptors) (α1 adrenergic receptors) [%] | change in vivo at 1 mg/kg [3, 4] [%] | change in vivo at 1 mg/kg [3, 5] [%] | change in vivo at 1 mg/kg [3, 6] [%] | change in vivo at 1 mg/kg [3, 7] [%]
1 | COc1ccccc1OCC(O)CN1CCC(c2c[nH]c3ccccc23)CC1 (stereo not drawn) [Example 14, 4-(1H--indol-3-yl)-α-[2-methoxyphenoxymethyl]-piperidine-1-ethanol hydrochloride] | > 100 | 83 | 11000 | – | – | – | – | –
2 | Nc1ccccc1OCC(O)CN1CCC(c2c[nH]c3ccccc23)CC1 (stereo not drawn) [Example 19, 4-(1H--indol-3-yl)-α-[2-amino-phenoxymethyl]-piperidine-1-ethanol fumarate] | > 100 | 165 | – | – | – | – | – | –
3 | OC(COc1cccc(Cl)c1)CN1CCC(c2c[nH]c3ccccc23)CC1 (stereo not drawn) [Example 22, 4-(1H--indol-3-yl)-α-[3-chloro-phenoxymethyl]-piperidine-1-ethanol hydrochloride] | 80 | – | 1800 | 70 | – | – | – | –
4 | C=CCOc1cccc(OCC(O)CN2CCC(c3c[nH]c4ccccc34)CC2)c1 (stereo not drawn) [Example 28, 4-(1H--indol-3-yl)-α-[3-(prop-2-enyloxy)-phenoxymethyl]-piperidine-1-ethanol hydrochloride] | > 100 | 103 | 2400 | – | -5 | -10 | -6 | -9
5 | O=[N+]([O-])c1ccc(OCC(O)CN2CCC(c3c[nH]c4ccccc34)CC2)cc1 (stereo not drawn) [Example 5, 4-(1H--indol-3-yl)-α-[4-nitrophenoxymethyl]-piperidine-1-ethanol hydrochloride] | > 200 | 82 | 4500 | 77 | – | – | – | –
6 | Cc1cccc(OCC(O)CN2CCC(c3c[nH]c4ccccc34)CC2)c1 (stereo not drawn) [Example 18, 4-(1H--indol-3-yl)-α-[3-methylphenoxymethyl]-piperidine-1-ethanol hydrochloride] | > 100 | 23 | 2000 | – | – | – | – | –
7 | C=CCOc1ccccc1OCC(O)CN1CCC(c2cn(C)c3ccccc23)CC1 (stereo not drawn) [Example 31, 4-(1-methyl-1H--indol-3-yl)-α-[2-(prop-2-enyloxy)-phenoxymethyl]-piperidine-1-ethanol fumarate] | – | 49 | 3000 | – | – | – | – | –
8 | COc1cccc(OCC(O)CN2CCC(c3c[nH]c4ccccc34)CC2)c1 (stereo not drawn) [Example 23, 4-(1H--indol-3-yl)-α-[3-methoxyphenoxymethyl]-piperidine-1-ethanol hydrochloride] | > 200 | 73 | 2700 | – | -7 | -19 | 14 | -17
9 | C=CCOc1ccc(OCC(O)CN2CCC(c3c[nH]c4ccccc34)CC2)cc1 (stereo not drawn) [Example 26, 4-(1H--indol-3-yl)-α-[4-prop-2-enyloxy)-phenoxymethyl]-piperidine-1-ethanol hydrochloride] | > 200 | 68 | 1500 | – | – | – | – | –
10 | Oc1cccc(OCC(O)CN2CCC(c3c[nH]c4ccccc34)CC2)c1 (stereo not drawn) [Example 30, 4-(1H--indol-3-yl)-α-[3-hydroxyphenoxymethyl]-piperidine-1-ethanol hydrochloride] | > 100 | 86 | – | – | – | – | – | –
11 | OC(COc1ccccc1)CN1CCC(c2c[nH]c3ccccc23)CC1 (stereo not drawn) [Example 3, 4-(1H--indol-3-yl)-α-[phenoxymethyl]-piperidine-1-ethanol hydrochloride] | – | 55 | 2500 | – | – | – | – | –
12 | C=CCOc1ccccc1OCC(O)CN1CC=C(c2c[nH]c3ccccc23)CC1 (stereo not drawn) [Example 24, 4-(1H--indol-3-yl)-α-[2-prop-2-enyloxy)-phenoxymethyl]-1,2,3,6,tetrahydropyridine-1-ethanol fumarate] | > 200 | – | 700 | – | -10 | -16 | -11 | -17
13 | COc1ccc(OCC(O)CN2CCC(c3c[nH]c4ccccc34)CC2)cc1 (stereo not drawn) [Example 8, 4-(1H--indol-3-yl)-α-[4-methoxyphenoxymethyl]-piperidine-1-ethanol hydrochloride] | > 200 | 57 | 4200 | 222 | -10 | -13 | 0 | -13
14 | OC(COc1ccc(C(F)(F)F)cc1)CN1CCC(c2c[nH]c3ccccc23)CC1 (stereo not drawn) [Example 25, 4-(1H--indol-3-yl)-α-[4-trifluoramethylphenoxymethyl]-piperidine-1-ethanol hydrochloride] | 100 | 35 | 1500 | – | -5 | -14 | -6 | -14
15 | COc1ccc(OCC(O)CN2CCC(c3c[nH]c4ccccc34)CC2)cc1OC (stereo not drawn) [Example 27, 4-(1H--indol-3-yl)-α-[3,4-dimethoxyphenoxymethyl]-piperidine-1-ethanol hydrochloride] | 80 | 115 | – | – | – | – | – | –
16 | C=CCOc1ccccc1OCC(O)CN1CCC(c2c[nH]c3ccc(OC)cc23)CC1 (stereo not drawn) [Example 32, 4-(5-methoxy-1H--indol-3-yl)-α -2-(prop-2-enyloxy)-phenoxymethyl]-piperidine-1-ethanol fumarate] | – | 20 | 1900 | – | – | – | – | –
17 | OC(COc1ccc(Cl)c(Cl)c1)CN1CCC(c2c[nH]c3ccccc23)CC1 (stereo not drawn) [Example 29, 4-(1H--indol-3-yl)-α-[3,4-dichlorophenoxymethyl]-piperidine-1-ethanol hydrochloride] | > 100 | 53 | 2400 | – | – | – | – | –
18 | CC(=O)Nc1ccccc1OCC(O)CN1CCC(c2c[nH]c3ccccc23)CC1 (stereo not drawn) [Example 20, 4-(1H--indol-3-yl)-α-[2-acetamidophenoxymethyl]-piperidine-1-ethanol hydrochloride] | – | – | – | 311 | – | – | – | –
19 | Cc1ccc(OCC(O)CN2CCC(c3c[nH]c4ccccc34)CC2)cc1 (stereo not drawn) [Example 21, 4-(1H--indol-3-yl)-α-[4-methylphenoxymethyl]-piperidine-1-ethanol hydrochloride] | > 100 | 60 | 1800 | 93 | – | – | – | –
